{
  "source": "paper PMC12801355",
  "about": "“Peptide Amphiphiles Hitchhike on Endogenous Biomolecules for Enhanced Cancer Imaging and Therapy” (Advanced Materials (Deerfield Beach, Fla.), 2025)",
  "experiment_in_all_cases": "Mass spectrometry of proteins pulled down with biotinylated SA‐E (SA‐Eb) from human plasma",
  "assay_type_in_all_cases": "binding",
  "key": {"human plasma proteins [1]": {"biological_target": "T1, human plasma proteins (Homo sapiens, UniProt P05090)", "T1 construct": "incubated with 50% pooled human plasma at 37 °C for 2 h; from tissue; host or cells: pooled human plasma (50%)", "T1 sequence (P05090 21-189)": "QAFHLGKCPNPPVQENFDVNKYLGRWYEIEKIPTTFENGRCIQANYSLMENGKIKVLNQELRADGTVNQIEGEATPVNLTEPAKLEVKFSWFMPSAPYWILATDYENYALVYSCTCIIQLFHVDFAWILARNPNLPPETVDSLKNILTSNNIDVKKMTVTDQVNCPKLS", "description": "(§1) Samples were prepared for mass spectrometry analysis via a pull‐down of a biotinylated version of the SA‐E probe (SA‐Eb, 100 µM) incubated with 50% pooled human plasma at 37 °C for 2 h. Before incubation with the SA‐Eb‐plasma mixture, magnetic streptavidin‐coated beads (Dynabeads MyOne Streptavidin T1, Invitrogen, 65601) were washed with PBS (10 mM, pH 7.4) then blocked with 1% casein equal to the total initial volume of beads for 15 min at room temperature. After blocking, beads were washed again with PBS. Beads were then combined with SA‐Eb‐plasma solution, 25 µL beads to 200 µL mixture. This mixture was then incubated at room temperature for 30 min. After incubation, the remaining solution was removed, and the beads were washed five times with PBS. Bound SA‐Eb was eluted from beads in 30 µL 0.5% Triton X‐100 solution. Magnetic beads were then removed, and the elution was collected for analysis. For plasma control, the incubation with SA‐Eb step was skipped, and 50% plasma in PBS was incubated with beads and washed and eluted using the same method as the SA‐Eb‐plasma solution. The elution solutions were then analyzed by the Proteomics Shared Resource facility at Oregon Health & Science University (See Supporting Information for details).\n(§2) Sample Preparation. Eluted plasma samples were dried down and stored at -80°C. Samples were thawed at room temperature for 10 min, and 75 µL of SDS protein extraction buffer (5% SDS, 50 mM […]; TEAB) was added to each sample. Samples were shaken in a Thermo mixer for 10 minutes at room temperature and centrifuged at 10,000 g for 5 min. Each sample was transferred from a 0.5 mL tube to a 1.5 mL LoBind centrifuge tube. Samples were reduced by adding 3.4 µL of 0.5 M dithiothreitol and incubated at 95 °C for 10 min. Samples were alkylated by the addition of 6.8 µL of 0.5 M iodoacetamide and were incubated at room temperature for 30 min in the dark. Samples were then acidified by the addition of 8.52 µL of 12% phosphoric acid, and 562 µL of SDS protein binding buffer (90% methanol, 100 mM TEAB, pH 7.51). Samples were transferred 165 µL at a time to S-trap micro columns (Protifi, Farmingdale, NY) and inserted into 1.5 mL of polypropylene tubes. Samples were centrifuged at 4,000 g for 3 min between each addition of the sample. S-trap columns were washed 6 times using 150 µL of 90% methanol containing 100 mM of TEAB followed by centrifugation at 4,000g for 3 min between each wash step. S-trap columns containing the bound sample proteins were transferred to 1.5 mL LoBind centrifuge tubes and 40 µL of 80 ng/µL sequencing grade modified trypsin (Pierce TM Trypsin Protease MS-Grade, XG348166) in 50 mM TEAB was added. S-trap columns were loosely capped, and digestion was performed at 37°C overnight in a humidified chamber.\n(§3) After completion of digestion, peptides were eluted by sequential addition of 40 µL of TEAB, 40 µL of 0.2% aqueous formic acid, and 40 µl of 50% acetonitrile, 0.2% formic acid, with centrifugation at 4,000 g for 4 min between each addition of elution buffer. The elution fractions were combined and then dried by vacuum centrifugation. Samples were reconstituted by adding 20 µL of 5% formic acid, shaking at 37 °C, and spinning at 15,000 g for 5 min. The supernatant of each sample was transferred to an auto-sample vial.\n(§4) Data analysis. Mass spectrometry data from all samples were processed using COMET/PAWS against Uniprot_Human_database. Comet (v. 2016.01, rev. 3)^8 was used to search MS2 Spectra against a January 2023 version of canonical FASTA protein database containing human uniprot sequences, and concatenated sequence-reversed entries to estimate error thresholds and 179 common contaminant sequences and their reversed forms. The database processing was performed using python scripts available at https://github.com/pwilmart/fasta_utilities.git and Comet results were processed using the PAW pipeline2 from https://github.com/pwilmart/PAW_pipeline.git."}, "human plasma proteins [2]": {"biological_target": "T2, human plasma proteins (Homo sapiens, UniProt P06727)", "T2 construct": "incubated with 50% pooled human plasma at 37 °C for 2 h; from tissue; host or cells: pooled human plasma (50%)", "T2 sequence (P06727 21-396)": "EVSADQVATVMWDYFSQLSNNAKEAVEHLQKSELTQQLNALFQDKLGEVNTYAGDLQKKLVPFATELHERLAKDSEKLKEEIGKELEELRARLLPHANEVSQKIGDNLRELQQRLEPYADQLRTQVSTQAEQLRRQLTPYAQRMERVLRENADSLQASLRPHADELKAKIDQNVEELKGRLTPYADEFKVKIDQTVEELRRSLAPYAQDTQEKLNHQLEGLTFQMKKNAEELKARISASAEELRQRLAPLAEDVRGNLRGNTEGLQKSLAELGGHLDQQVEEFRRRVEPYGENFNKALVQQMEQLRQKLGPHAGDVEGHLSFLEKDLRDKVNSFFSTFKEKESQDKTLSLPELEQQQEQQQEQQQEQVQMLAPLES", "description": "as §1, §2, §3, §4"}, "human plasma proteins [3]": {"biological_target": "T3, human plasma proteins (Homo sapiens, UniProt P04114)", "T3 construct": "incubated with 50% pooled human plasma at 37 °C for 2 h; from tissue; host or cells: pooled human plasma (50%)", "description": "as §1, §2, §3, §4"}, "human plasma proteins [4]": {"biological_target": "T4, human plasma proteins (Homo sapiens, UniProt P02768)", "T4 construct": "incubated with 50% pooled human plasma at 37 °C for 2 h; from tissue; host or cells: pooled human plasma (50%)", "T4 sequence (P02768 25-609)": "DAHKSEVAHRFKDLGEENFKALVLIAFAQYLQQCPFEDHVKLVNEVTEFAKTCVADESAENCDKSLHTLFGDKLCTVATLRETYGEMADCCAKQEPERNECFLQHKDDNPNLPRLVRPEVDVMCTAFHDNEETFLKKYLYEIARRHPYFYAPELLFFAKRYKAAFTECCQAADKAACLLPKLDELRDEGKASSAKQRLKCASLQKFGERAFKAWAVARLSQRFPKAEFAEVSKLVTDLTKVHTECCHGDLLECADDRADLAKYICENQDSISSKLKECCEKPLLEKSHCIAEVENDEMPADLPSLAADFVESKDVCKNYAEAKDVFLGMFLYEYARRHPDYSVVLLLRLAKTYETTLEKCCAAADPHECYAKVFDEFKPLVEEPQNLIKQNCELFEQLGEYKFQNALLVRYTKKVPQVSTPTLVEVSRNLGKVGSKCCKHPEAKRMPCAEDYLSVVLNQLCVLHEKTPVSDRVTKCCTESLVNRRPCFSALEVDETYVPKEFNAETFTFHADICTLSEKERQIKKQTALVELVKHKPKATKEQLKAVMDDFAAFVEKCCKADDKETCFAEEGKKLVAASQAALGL", "details": "for Total Counts, Albumin: pull‐down with biotinylated SA-E", "description": "as §1, §2, §3, §4"}, "human plasma proteins [5]": {"biological_target": "T5, human plasma proteins (Homo sapiens, UniProt P02652)", "T5 construct": "incubated with 50% pooled human plasma at 37 °C for 2 h; from tissue; host or cells: pooled human plasma (50%)", "T5 sequence (P02652 19-100)": "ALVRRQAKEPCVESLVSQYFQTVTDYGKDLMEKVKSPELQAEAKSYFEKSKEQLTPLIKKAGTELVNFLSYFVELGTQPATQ", "description": "as §1, §2, §3, §4"}, "human plasma proteins [6]": {"biological_target": "T6, human plasma proteins (Homo sapiens, UniProt P02649)", "T6 construct": "incubated with 50% pooled human plasma at 37 °C for 2 h; from tissue; host or cells: pooled human plasma (50%)", "T6 sequence (P02649 19-317)": "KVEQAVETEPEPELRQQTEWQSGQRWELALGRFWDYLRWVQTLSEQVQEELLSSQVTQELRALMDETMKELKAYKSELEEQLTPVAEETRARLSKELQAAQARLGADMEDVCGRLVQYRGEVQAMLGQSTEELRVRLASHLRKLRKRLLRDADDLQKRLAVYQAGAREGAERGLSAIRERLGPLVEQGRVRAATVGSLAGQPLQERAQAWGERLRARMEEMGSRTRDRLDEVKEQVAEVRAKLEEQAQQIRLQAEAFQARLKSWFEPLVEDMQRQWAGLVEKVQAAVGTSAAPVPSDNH", "description": "as §1, §2, §3, §4"}, "human plasma proteins [7]": {"biological_target": "T7, human plasma proteins (Homo sapiens, UniProt O95445)", "T7 construct": "incubated with 50% pooled human plasma at 37 °C for 2 h; from tissue; host or cells: pooled human plasma (50%)", "T7 sequence (O95445 whole entry)": "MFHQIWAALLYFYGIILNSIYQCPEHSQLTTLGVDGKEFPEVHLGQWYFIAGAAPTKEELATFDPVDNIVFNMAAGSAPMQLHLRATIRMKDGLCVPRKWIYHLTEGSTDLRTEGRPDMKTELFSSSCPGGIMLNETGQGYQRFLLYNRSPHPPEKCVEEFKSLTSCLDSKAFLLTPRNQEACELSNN", "description": "as §1, §2, §3, §4"}, "human plasma proteins [8]": {"biological_target": "T8, human plasma proteins (Homo sapiens, UniProt P02656)", "T8 construct": "incubated with 50% pooled human plasma at 37 °C for 2 h; from tissue; host or cells: pooled human plasma (50%)", "T8 sequence (P02656 21-99)": "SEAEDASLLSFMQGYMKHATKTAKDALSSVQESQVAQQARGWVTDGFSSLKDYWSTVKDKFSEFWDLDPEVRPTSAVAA", "description": "as §1, §2, §3, §4"}},
  "note": "Where a SMILES comes first, the peptide text is derived from it. The star is where a group is joined. Palmitoyl = CCCCCCCCCCCCCCCC(=O)*",
  "data": [
    {"smiles": "CCCCCCCCCCCCCCCC(=O)NCC(=O)NCC(=O)NCC(=O)N[C@@H](Cc1c[nH]cn1)C(=O)N[C@@H](C)C(=O)N[C@@H](C)C(=O)N[C@@H](CC(N)=O)C(=O)NCC(=O)N[C@@H](CCC(=O)O)C(=O)N[C@@H](CCC(=O)O)C(=O)N[C@@H](CS)C(=O)N[C@@H](CCC(=O)O)C(=O)O", "note": "[SA‐E] (Palmitoyl-GGGHAANGEECE-OH)", "values": [
      {"measurement": "Percentage, Apolipoprotein D", "setting": "human plasma proteins [1]; replicate 1", "value": 0.6, "unit": "%"},
      {"measurement": "Total Counts, Apolipoprotein D", "setting": "human plasma proteins [1]; replicate 1", "value": 22},
      {"measurement": "Percentage, Apolipoprotein D", "setting": "human plasma proteins [1]; replicate 2", "value": 0.8, "unit": "%"},
      {"measurement": "Total Counts, Apolipoprotein D", "setting": "human plasma proteins [1]; replicate 2", "value": 22},
      {"measurement": "Percentage, Apolipoprotein A-IV", "setting": "human plasma proteins [2]; replicate 1", "value": 1.1, "unit": "%"},
      {"measurement": "Total Counts, Apolipoprotein A-IV", "setting": "human plasma proteins [2]; replicate 1", "value": 39},
      {"measurement": "Percentage, Apolipoprotein A-IV", "setting": "human plasma proteins [2]; replicate 2", "value": 0.6, "unit": "%"},
      {"measurement": "Total Counts, Apolipoprotein A-IV", "setting": "human plasma proteins [2]; replicate 2", "value": 16},
      {"measurement": "Percentage, Apolipoprotein B-100", "setting": "human plasma proteins [3]; replicate 1", "value": 4.7, "unit": "%"},
      {"measurement": "Total Counts, Apolipoprotein B-100", "setting": "human plasma proteins [3]; replicate 1", "value": 166},
      {"measurement": "Percentage, Apolipoprotein B-100", "setting": "human plasma proteins [3]; replicate 2", "value": 6.0, "unit": "%"},
      {"measurement": "Total Counts, Apolipoprotein B-100", "setting": "human plasma proteins [3]; replicate 2", "value": 170},
      {"measurement": "Total Counts, Albumin", "setting": "human plasma proteins [4]; replicate 1", "value": 1215},
      {"measurement": "Total Counts, Albumin", "setting": "human plasma proteins [4]; replicate 2", "value": 923},
      {"measurement": "Percentage, Albumin", "setting": "human plasma proteins [4]; replicate 1", "value": 34.0, "unit": "%"},
      {"measurement": "Percentage, Albumin", "setting": "human plasma proteins [4]; replicate 2", "value": 32.5, "unit": "%"},
      {"measurement": "Percentage, Apolipoprotein A-II", "setting": "human plasma proteins [5]; replicate 1", "value": 0.2, "unit": "%"},
      {"measurement": "Total Counts, Apolipoprotein A-II", "setting": "human plasma proteins [5]; replicate 1", "value": 6},
      {"measurement": "Percentage, Apolipoprotein A-II", "setting": "human plasma proteins [5]; replicate 2", "value": 0.2, "unit": "%"},
      {"measurement": "Total Counts, Apolipoprotein A-II", "setting": "human plasma proteins [5]; replicate 2", "value": 6},
      {"measurement": "Percentage, Apolipoprotein E", "setting": "human plasma proteins [6]; replicate 1", "value": 1.8, "unit": "%"},
      {"measurement": "Total Counts, Apolipoprotein E", "setting": "human plasma proteins [6]; replicate 1", "value": 66},
      {"measurement": "Percentage, Apolipoprotein E", "setting": "human plasma proteins [6]; replicate 2", "value": 2.1, "unit": "%"},
      {"measurement": "Total Counts, Apolipoprotein E", "setting": "human plasma proteins [6]; replicate 2", "value": 59},
      {"measurement": "Percentage, Apolipoprotein M", "setting": "human plasma proteins [7]; replicate 1", "value": 0.3, "unit": "%"},
      {"measurement": "Total Counts, Apolipoprotein M", "setting": "human plasma proteins [7]; replicate 1", "value": 11},
      {"measurement": "Percentage, Apolipoprotein M", "setting": "human plasma proteins [7]; replicate 2", "value": 0.4, "unit": "%"},
      {"measurement": "Total Counts, Apolipoprotein M", "setting": "human plasma proteins [7]; replicate 2", "value": 12},
      {"measurement": "Percentage, Apolipoprotein C-III", "setting": "human plasma proteins [8]; replicate 1", "value": 0.1, "unit": "%"},
      {"measurement": "Total Counts, Apolipoprotein C-III", "setting": "human plasma proteins [8]; replicate 1", "value": 4},
      {"measurement": "Percentage, Apolipoprotein C-III", "setting": "human plasma proteins [8]; replicate 2", "value": 0.2, "unit": "%"},
      {"measurement": "Total Counts, Apolipoprotein C-III", "setting": "human plasma proteins [8]; replicate 2", "value": 5}
    ]}
  ]
}
